Test results taken from patent US9617221B2, “Kinase modulators for the treatment of cancer” (Synovo GmbH, priority 2010, dated 2017).

Assays:
Assay type in all cases: cell-based, mice
IL-10 [1] = experiment: IL-10 production by LPS-stimulated murine peritoneal macrophage (ELISA); settings: for IL-10 by ELISA, % of solvent treated control: murine peritoneal macrophage; for IL-10 (LPS, Macrophages), amount of cytokine: 10 μM, 72 h
Experimental: (§1) Peritoneal macrophage or splenocytes (lymphocytes and macrophage) were harvested from donor mice using standard techniques. Cells were placed in culture and stimulated with either LPS (10 μg/mL) or concanavalin A 5 μg/mL (Sigma Chemical Co., St Louis, Mo.) in RPMI-1640 medium supplemented with antibiotics, […] 2-mercaptoethanol, 10 mm HEPES buffer and 10% fetal calf serum (FCS) (see Holan et al., 1985) to stimulate macrophage and T-cells respectively. Compounds were added from DMSO stock solutions to a final concentration of 50 μM or less with DMSO not exceeding 1% of total volume. After 72 h, cell supernatant was recovered and the cytokine levels were estimated by ELISA. The effect of compounds on cytokine production was recorded as follows: […]

B cells = experiment: Proliferation of LPS-stimulated B cells; settings: 10 μM
IL-10 [2] = experiment: IL-10 production by ConA-stimulated T cells; settings: 10 μM, 72 h
Experimental: as §1

T cells = experiment: Proliferation of Con A-stimulated T cells; settings: 10 μM
Experimental: as §1

IFN-g = IFN-g production by ConA-stimulated T cells; settings: 10 μM, 72 h
Experimental: as §1

IL-6 = IL-6 production by LPS-stimulated macrophages; settings: 10 μM, 72 h
Experimental: as §1

IL-2 = IL-2 production by ConA-stimulated T cells; settings: 10 μM, 72 h
Experimental: as §1

NO = NO production by LPS-stimulated macrophages; settings: 10 μM, 72 h

SMILES | IL-10 by ELISA, % of solvent treated control (IL-10 [1]; 1.25 μM inhibitor in medium) | IL-10 by ELISA, % of solvent treated control (IL-10 [1]; 5 μM inhibitor in medium) | IL-10 by ELISA, % of solvent treated control (IL-10 [1]; 20 μM inhibitor in medium) | Proliferation (LPS, B cells) (B cells) | IL-10 (ConA, T cells), amount of cytokine (IL-10 [2]) | Proliferation (Con A, T cells) (T cells) | IFN-g (ConA, T cells), amount of cytokine (IFN-g) | IL-6 (LPS, Macrophages), amount of cytokine (IL-6) | IL-2 (ConA, T cells), amount of cytokine (IL-2) | NO (LPS, Macrophages), % of control treated with solvent alone (NO) | IL-10 by ELISA, % of solvent treated control (IL-10 [1]; 2 μM inhibitor in medium) | IL-10 by ELISA, % of solvent treated control (IL-10 [1]; 10 μM inhibitor in medium) | IL-10 (LPS, Macrophages), amount of cytokine (IL-10 [1]) | IL-10 by ELISA, % of solvent treated control (IL-10 [1]; 50 μM inhibitor in medium)
CCOC(=O)CCCN(C)C1CC(C)OC(OC2C(C)C(OC3CC(C)(OC)C(O)C(C)O3)C(C)C(=O)OC(CC)C(C)(O)C(O)C(C)N(C)CC(C)CC2(C)O)C1O (stereo not shown) [Compound 27, 4-({2-[2-Ethyl-3,4,10-trihydroxy-13-(5-hydroxy-4-methoxy-4,6-dimethyl-tetrahydro-pyran-2-yloxy)-3,5,6,8,10,12,14-heptamethyl-15-oxo-1-oxa-6-aza-cyclopentadec-11-yloxy]-3-hydroxy-6-methyl-tetrahydro-pyran-4-yl}-methyl-amino)-butyric acid ethyl ester] | 132 % of solvent treated control | 106 % of solvent treated control | 17 % of solvent treated control | – | – | – | – | – | – | – | – | – | – | –
CCC1OC(=O)C(C)C(OC2CC(C)(OC)C(O)C(C)O2)C(C)C(OC2OC(C)CC(N(C)CCCC(=O)OCC3CO3)C2O)C(C)(O)CC(C)CN(C)C(C)C(O)C1(C)O (stereo not shown) [Compound 29] | 110 % of solvent treated control | 114 % of solvent treated control | 106 % of solvent treated control | – | – | – | – | – | – | – | – | – | – | –
CCC1OC(=O)C(C)C(OC2CC(C)(OC)C(O)C(C)O2)C(C)C(OC2OC(C)CC(N(C)CCCCCC(=O)OCCO)C2O)C(C)(O)CC(C)CN(C)C(C)C(O)C1(C)O (stereo not shown) [Compound 36] | – | – | – | 3 % of control treated with solvent alone | 79 % of control treated with solvent alone | 199 % of control treated with solvent alone | 99 % of control treated with solvent alone | 91 % of control treated with solvent alone | 96 % of control treated with solvent alone | 100 % of control treated with solvent alone | 88 % of solvent treated control | 116 % of solvent treated control | 116 % of control treated with solvent alone | 0 % of solvent treated control
CC[C@H]1OC(=O)[C@H](C)[C@@H](O[C@H]2C[C@@](C)(OC)[C@@H](O)[C@H](C)O2)[C@H](C)[C@@H](O[C@@H]2O[C@H](C)C[C@H](N(C)CCCC(=O)OCC(O)CSc3nc(-c4ccc(F)cc4)c(-c4ccnc(NC(C)C(C)C)c4)[nH]3)[C@H]2O)[C@](C)(O)C[C@@H](C)CN(C)[C@H](C)[C@@H](O)[C@]1(C)O (stereo partly shown) [Compound 43a] | – | – | – | 2 % of control treated with solvent alone | 0 % of control treated with solvent alone | 0 % of control treated with solvent alone | 3 % of control treated with solvent alone | 15 % of control treated with solvent alone | 0 % of control treated with solvent alone | 1 % of control treated with solvent alone | 16 % of solvent treated control | 2 % of solvent treated control | 2 % of control treated with solvent alone | 5 % of solvent treated control
